# Results from patent US4681882A, “4-alkoxy-pyrido[2,3-d]pyrimidine derivatives” (Godecke Aktiengesellschaft, priority 1984, dated 1987).
# Experiments:
# [1] = tested on: arteria basilaris vessel rings; experiment: Inhibition of K^+ depolarization contraction of isolated vessel rings (a. basilaris) in the organ bath; type: cell-based; details: rabbit a. basilaris rings, mean diameter 0.5-1.0 mm, potassium depolarization in Tyrode's solution, read-out: Concentration (IC50) effecting a semimaximal inhibition of the K^+ -depolarization contraction of vessel rings, a. basilaris
# From the text: (§1) Of rabbits (vessel ring segments of arteria basilaris and a. coronaria are mounted in an organ bath in a way to allow the measurement of isometric contractions. Contractile activity is elicited by a potassium depolarization in Tyrode's solution. This experimental set-up is a well-known standard model for the identification of substances blocking the calcium channels opened during the potassium depolarization (Fleckenstein, Calcium Antagonism in Heart and Smooth Muscle, J. Wiley & Sons, 1983).
# (§2) Concentrations (IC50, mol/l) of compounds effecting a semimaxi-
# (§3) mal inhibition of the K^+ -depolarization contraction of vessel
# (§4) in the organ bath. A. bas. = arteria basilaris, a cor. = arteria
# (§5) coronaria of the rabbit; mean diameter 0.5-1.0 mm.
# [2] = tested on: arteria coronaria vessel rings; experiment: Inhibition of K^+ depolarization contraction of isolated vessel rings (a. coronaria) in the organ bath; type: cell-based; details: rabbit a. coronaria rings, mean diameter 0.5-1.0 mm, potassium depolarization in Tyrode's solution, read-out: Concentration (IC50) effecting a semimaximal inhibition of the K^+ -depolarization contraction of vessel rings, a. coronaria
# From the text: as §1, §2, §3, §4, §5
IC50 [1],IC50 [2],SMILES
33 nM,160 nM,"CC1=C(C(=O)OC(C)C)C(c2cccc([N+](=O)[O-])c2)c2c(ncnc2OC(C)C)N1 (racemic) [Example 1d, (±)-5,8)Dihydro-4-isopropoxy-7-methyl-5-(3-nitrophenyl)pyrido[2,3-d]pyrimidine-6-carboxylic acid isopropyl ester]"
2800 nM,73 nM,"CCOC(=O)C1=C(N)Nc2ncnc(OC(C)C)c2C1c1ccccc1OC (racemic) [Example 1e, (±)-7-Amino-5,8-dihydro-4-isopropoxy-5-(2-methoxyphenyl)pyrido[2,3-d]pyrimidine-6-carboxylic acid ethyl ester]"
2.5 nM,140 nM,"COc1ncnc2c1C(c1cccc([N+](=O)[O-])c1)C(C(=O)OC(C)C)=C(C)N2 (racemic) [Example 2, (±)-5,8-Dihydro-4-methoxy-7-methyl-5-(3-nitrophenyl)pyrido[2,3-d]pyrimidine-6-carboxylic acid isopropyl ester]"

# Second part, the compound before the results:
SMILES,IC50 [1],IC50 [2]
"COCCOC(=O)C1=C(C)Nc2ncnc(OC(C)C)c2C1c1cccc([N+](=O)[O-])c1 (racemic) [Example 1b, (±)-5,8-Dihydro-4-isopropoxy-7-methyl-5-(3-nitrophenyl)pyrido[2,3-d]pyrimidine-6-carboxylic acid(2-methoxy)ethyl ester]",39 nM,34 nM
"COC(=O)C1=C(C)Nc2ncnc(OC(C)C)c2C1c1ccccc1C(F)(F)F (racemic) [Example 1c, (±)-5,8-Dihydro-4-isopropoxy-7-methyl-5-(2-trifluromethylphenyl)pyrido[2,3-d]pyrimidine-6-carboxylic acid methyl ester]",40 nM,45 nM
"CCOC(=O)C1=C(C)Nc2ncnc(OC(C)C)c2C1c1ccccc1C(F)(F)F (racemic) [Example 1f, (±)-5,8-Dihydro-4-isopropoxy-7-methyl-5-(2-trifluoromethylphenyl)pyrido[2,3-d]pyrimidine-6-carboxylic acid ethyl ester]",38 nM,34 nM
"COC(=O)C1=C(C)Nc2ncnc(OC(C)C)c2C1c1cccc([N+](=O)[O-])c1 (racemic) [Example 1g, (±)-5,8-Dihydro-4-isopropoxy-7-methyl-5-(3-nitrophenyl)pyrido[2,3-d]pyrimidine-6-carboxylic acid methyl ester]",28 nM,230 nM
